Reference: article PMC6335420, “The cell cycle regulator GpsB functions as cytosolic adaptor for multiple cell wall enzymes” (Nature Communications, 2019)
Residues, ends and D or L forms follow the SMILES beside them. *: point of attachment. X1 = CN(C)c1ccc2c(-c3ccc(N4C(=O)CC(*)C4=O)cc3C(=O)[O-])c3ccc(=[N+](C)C)cc-3oc2c1

Assays:
SpGpsB1-63Asp33Ala = molecular target: T1, SpGpsB1-63Asp33Ala (Streptococcus pneumoniae, UniProt Q8DR57, D33A); test: Fluorescence polarisation binding to SpGpsB1-63Asp33Ala; settings: FP, SpGpsB1-63Asp33Ala relative to wild-type SpGpsB1-63
T1 construct: His6 (N, cleaved yes); made in house; host or cells: E. coli BL21(DE3)
T1 sequence (Q8DR57 1-63 D33A): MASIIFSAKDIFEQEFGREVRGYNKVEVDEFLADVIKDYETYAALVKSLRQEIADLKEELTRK
Source text: (§1) 75 the BsGpsB5-64:BsPBP11-17 complex.

SpGpsB1-63 = molecular target: T2, SpGpsB1-63 (Streptococcus pneumoniae, UniProt Q8DR57); test: Fluorescence polarisation binding to SpGpsB1-63; settings: FP
T2 construct: The SpGpsB1-63 expression construct (pET28SpGpsB1-63) was prepared by PCR amplification of gpsB; His6 (N, cleaved yes); made in house; host or cells: E. coli BL21(DE3)
T2 sequence (Q8DR57 1-63): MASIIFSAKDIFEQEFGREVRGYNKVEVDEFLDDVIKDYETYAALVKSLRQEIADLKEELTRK
Source text: as §1

GpsB = test: Displacement of pre-bound PBP peptides from GpsB; assay type: binding; settings: 100-fold molar excess of free L-arginine
BsYrrS = test: BACTH interaction with BsYrrS; assay type: cell-based, Bacillus subtilis; settings: E. coli BTH101, nutrient agar, 30 °C
SpGpsB = test: BACTH interaction with SpGpsB; assay type: cell-based, Streptococcus pneumoniae; settings: E. coli BTH101, 30 °C, 36-40 h
Source text: The target genes were amplified by the PCR from S. pneumoniae D39 chromosomal DNA. PCR fragments for pbp2a, mreC, pbp1a, pbp2x and pbp2b were purified, digested with appropriate restriction enzymes and cloned into the corresponding sites of the pKT25/pUT18C vectors to generate plasmids encoding the corresponding hybrid proteins fused at the C-terminal ends of the T25 and T18 fragments, respectively. Plasmids pKNT25-gpsB/pUT18-gpsB, pKNT25-stkP/pUT18-stkP and pKNT25-ezrA/pUT18-ezrA were already constructed. The mutated and truncated gpsB and pbp2a alleles were amplified from their respective DNA templates and the corresponding PCR products cloned into the corresponding sites of the BACTH vectors as described above for the wild-type alleles. E. coli DH5α transformants were selected on LB agar plates containing ampicillin (100 μg^−1mL^−1) or kanamycin (50 μg^−1mL^−1) and 0.4% glucose to repress leaky expression.
BACTH experiments, each pair of plasmids was co-transformed into the E. coli cya- strain BTH101 and co-transformation mixtures were spotted onto LB agar plates supplemented with ampicillin ([…]), kanamycin ([…]) and X-Gal (40 μg^−1mL^−1), followed by incubation at 30 °C. Plates were inspected and photographed after 24 and 40 h. Plasmid pairs pKNT25/pUT18 and pKT25-zip/pUT18C-zip were used as negative and positive controls, respectively. […]

CC[C@H](C)[C@H](NC(=O)[C@@H]1CCCN1C(=O)[C@H](CSC1CC(=O)N(c2ccc(-c3c4ccc(=[N+](C)C)cc-4oc4cc(N(C)C)ccc34)c(C(=O)[O-])c2)C1=O)NC(=O)[C@@H](NC(=O)[C@H](CCC(N)=O)NC(=O)[C@H](C)NC(=O)[C@H](CC(C)C)NC(=O)[C@H](CCCCN)NC(=O)[C@H](CCCCN)NC(=O)[C@H](CCCNC(=N)N)NC(=O)[C@H](CC(=O)O)NC(=O)[C@H](CO)NC(=O)[C@H](CCCNC(=N)N)NC(=O)[C@H](CO)NC(=O)[C@H](CCCNC(=N)N)NC(=O)[C@H](CCCNC(=N)N)NC(=O)[C@H](CC(C)C)NC(=O)[C@@H](NC(=O)[C@@H](NC(=O)[C@H](CO)NC(=O)[C@H](CC(=O)O)NC(=O)[C@H](CO)NC(=O)[C@H](CC(=O)O)NC(=O)[C@H](CCSC)NC(=O)[C@H](CO)NC(=O)CN)[C@@H](C)O)[C@@H](C)CC)C(C)C)C(=O)O (some centres unmarked) [TAMRA-SpPBP2a23-45] (H-GSMDSDSTILRRSRSDRKKLAQVC(X1)PI-OH)
reduction in affinity on GpsB mutation (SpGpsB1-63Asp33Ala): ~ 40 fold | binding to SpGpsB1-63 (in words) (SpGpsB1-63): interacts

N=C(N)NCCC[C@H](N)C(=O)O [L-arginine]
displacement of pre-bound PBP peptides from GpsB (GpsB): does not displace pre-bound PBP peptides from GpsB

B1: BsPBP1: B. subtilis class A PBP1 (protein)
chain: MSDQFNSREARRKANSKSSPSPKKGKKRKKGGLFKKTLFTLLILFVLGVVGGAVTFAVMVSDAPSLDESKLKTPYSSTIYDKNGKEIAEVGAEKRTYVSIDEIPDVVKEAFIATEDARFYEHHGIDPVRIGGALVANFKDGFGAEGGSTITQQVVKNSLLSHQKTLKRKVQEVWLSIQLERNYSKDEILEMYLNRIYFSPRAYGIGKAAEEFFGVTDLSKLTVEQAATLAGMPQSPTAYNPVKNPDKAEKRRNIVLSLMKKQGFISDSQYNKAKKVAVKDEGVVSQKEYEKASTNKYSAFVEEVMKEIDEKSDVDPSADGLKIYTTLDTKAQDKLDELMDGDTVGFTEGMQGGVTLLDTKNGEVRAIGAGRNQPVGGFNYATQTKAQPGSTIKPILDYGPVIENKKWSTYEQIDDSAYTYSNGKPIRDWDRKYLGPISMRYALAQSRNIPALKAFQAVGKDTAVDFANGLGLGLTKDNVTEAYSIGGFGGNDGVSPLTMAGAYSAFGNNGTYNEPHFVKSIEFNDGTKLDLTPKSKSAMSDYTAFMITDMLKTAVKTGTGQLAQVPGVEVAGKTGTTNFDDNEVKRYNIASGGARDSWFVGYTPQYTAAVWTGMGENEAGKKSLSAEEQKVAKRIFAQLIADVDDGSGSFEKPDSVVEATVEKGSNPAKLAGPNTPSDKKLTEYFVKGTAPSTVSKTYEKEEKEETAKLSGLNVKYDKDNQSLTLSWNYDGDATFAVKQSVDGGSYSEIQNSSAKEAVISGVQPGSVYKFEVTAVSDDGKSTASTSYEVPKAEDDEDKKDQQQTDDEKQDDEKTQDDTQTDDSQKDDGQTDQDQTDDSTNDQDKKQDNTNTNPSDNNNQDQSNDNDNDNSNNQDTSDGDSNSGKNDSTGSDTNKNKTDTSNKTQTNSSSIEKTN
modifications: left off: His6, end not stated, cleaved
notes: B. subtilis class A PBP1
BACTH interaction with BsYrrS (BsYrrS): interacted

B2: SpPBP1a: S. pneumoniae class A PBP1a (protein)
chain: MNKPTILRLIKYLSISFLSLVIAAIVLGGGVFFYYVSKAPSLSESKLVATTSSKIYDNKNQLIADLGSERRVNAQANDIPTDLVKAIVSIEDHRFFDHRGIDTIRILGAFLRNLQSNSLQGGSALTQQLIKLTYFSTSTSDQTISRKAQEAWLAIQLEQKATKQEILTYYINKVYMSNGNYGMQTAAQNYYGKDLNNLSLPQLALLAGMPQAPNQYDPYSHPEAAQDRRNLVLSEMKNQGYISAEQYEKAVNTPITDGLQSLKSASNYPAYMDNYLKEVINQVEEETGYNLLTTGMDVYTNVDQEAQKHLWDIYNTDEYVAYPDDELQVASTIVDVSNGKVIAQLGARHQSSNVSFGINQAVETNRDWGSTMKPITDYAPALEYGVYESTATIVHDEPYNYPGTNTPVYNWDRGYFGNITLQYALQQSRNVPAVETLNKVGLNRAKTFLNGLGIDYPSIHYSNAISSNTTESDKKYGASSEKMAAAYAAFANGGTYYKPMYIHKVVFSDGSEKEFSNVGTRAMKETTAYMMTDMMKTVLSYGTGRNAYLAWLPQAGKTGTSNYTDEEIENHIKTSQFVAPDELFAGYTRKYSMAVWTGYSNRLTPLVGNGLTVAAKVYRSMMTYLSEGSNPEDWNIPEGLYRNGEFVFKNGARSTWSSPAPQQPPSTESSSSSSDSSTSQSSSTTPSTNNSTTTNPNNNTQQSNTTPDQQNQNPQPAQP
modifications: left off: T25 or T18 fragment of adenylate cyclase (vectors pKT25, pUT18C), N-terminal, kept
notes: S. pneumoniae class A PBP1a
BACTH interaction with SpGpsB (SpGpsB): interacted
